Reference: PubChem BioAssay (NCI)
Values joined by “and” are separate entries in the source; they are usually repeats but may differ in a detail not shown here. Equal entries are not always repeated.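 Values below derive from 48-hour exposures of cells grown in 96-well plates, with endpoints linearly interpolated between the two concentrations bracketing the appropriate inhibition level. GI50 marks 50% less growth. TGI denotes the concentration required for complete inhibition of growth.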

How the values were obtained:
Experiment in all cases: NCI-60 cell line screen, 48 h
786-0 renal = test system: 786-0 renal
A498 renal = test system: A498 renal
A549 NSCLC = test system: A549 NSCLC
ACHN renal = test system: ACHN renal
BT-549 breast = test system: BT-549 breast
CAKI-1 renal = test system: CAKI-1 renal
CCRF-CEM leukemia = test system: CCRF-CEM leukemia
COLO 205 colon = test system: COLO 205 colon
DU-145 prostate = test system: DU-145 prostate
EKVX NSCLC = test system: EKVX NSCLC
HCC-2998 colon = test system: HCC-2998 colon
HCT-116 colon = test system: HCT-116 colon
HCT-15 colon = test system: HCT-15 colon
HL-60(TB) leukemia = test system: HL-60(TB) leukemia
HOP-62 NSCLC = test system: HOP-62 NSCLC
HOP-92 NSCLC = test system: HOP-92 NSCLC
HS 578T breast = test system: HS 578T breast
HT29 colon = test system: HT29 colon
IGROV1 ovarian = test system: IGROV1 ovarian
K-562 leukemia = test system: K-562 leukemia
KM12 colon = test system: KM12 colon
LOX IMVI melanoma = test system: LOX IMVI melanoma
M14 melanoma = test system: M14 melanoma
MALME-3M melanoma = test system: MALME-3M melanoma
MCF7 breast = test system: MCF7 breast
MDA-MB-231 breast = test system: MDA-MB-231 breast
MDA-MB-435 = test system: MDA-MB-435
MOLT-4 leukemia = test system: MOLT-4 leukemia
NCI-H226 lung = test system: NCI-H226 lung
NCI-H23 lung = test system: NCI-H23 lung
NCI-H460 lung = test system: NCI-H460 lung
NCI-H522 lung = test system: NCI-H522 lung
NCI/ADR-RES ovarian = test system: NCI/ADR-RES ovarian
OVCAR-3 ovarian = test system: OVCAR-3 ovarian
OVCAR-4 ovarian = test system: OVCAR-4 ovarian
OVCAR-5 ovarian = test system: OVCAR-5 ovarian
OVCAR-8 ovarian = test system: OVCAR-8 ovarian
PC-3 prostate = test system: PC-3 prostate
RPMI-8226 leukemia = test system: RPMI-8226 leukemia
RXF 393 renal = test system: RXF 393 renal
SF-268 CNS = test system: SF-268 CNS
SF-295 CNS = test system: SF-295 CNS
SF-539 CNS = test system: SF-539 CNS
SK-MEL-2 melanoma = test system: SK-MEL-2 melanoma
SK-MEL-28 melanoma = test system: SK-MEL-28 melanoma
SK-MEL-5 melanoma = test system: SK-MEL-5 melanoma
SK-OV-3 ovarian = test system: SK-OV-3 ovarian
SN12C renal = test system: SN12C renal
SNB-19 CNS = test system: SNB-19 CNS
SNB-75 CNS = test system: SNB-75 CNS
SR leukemia = test system: SR leukemia
SW-620 colon = test system: SW-620 colon
T-47D breast = test system: T-47D breast
TK-10 renal = test system: TK-10 renal
U251 CNS = test system: U251 CNS
UACC-257 melanoma = test system: UACC-257 melanoma
UACC-62 melanoma = test system: UACC-62 melanoma
UO-31 renal = test system: UO-31 renal

## Nc1ncnc2occ(-c3ccc(NC(=O)Nc4cc(C(F)(F)F)ccc4F)cc3)c12
786-0 renal
  GI50: 6.63 µM and 4.43 µM
  TGI: 16.4 µM and 10.3 µM
A498 renal
  GI50: 1.09 µM and 0.506 µM
  TGI: 6.14 µM and 2.69 µM
A549 NSCLC
  GI50: 6.44 µM and 3.16 µM
  TGI: 18.8 µM and 11.5 µM
ACHN renal
  GI50: 4.17 µM and 2.9 µM
  TGI: 18.8 µM and 16.4 µM
BT-549 breast
  GI50: 6.83 µM and 3.42 µM
  TGI: 17.4 µM and 9.93 µM
CAKI-1 renal
  GI50: 4.36 µM and 1.78 µM
  TGI: 18.2 µM and 9 µM
CCRF-CEM leukemia
  GI50: 7.55 µM and 1.58 µM
  TGI: 22.8 µM and > 25 µM
COLO 205 colon
  GI50: 5.27 µM and 3.74 µM
  TGI: 9.88 µM and 7.13 µM
DU-145 prostate
  GI50: 7.01 µM and 2.68 µM
  TGI: 21.1 µM and 9.28 µM
EKVX NSCLC
  GI50: 5.12 µM and 3.97 µM
  TGI: 16.6 µM and 13.2 µM
HCC-2998 colon
  GI50: 8.02 µM and 3.98 µM
  TGI: 19 µM and 8.87 µM
HCT-116 colon
  GI50: 5.2 µM and 1.51 µM
  TGI: 16.8 µM and 9.61 µM
HCT-15 colon
  GI50: 6.31 µM and 3.97 µM
  TGI: 21.7 µM and 13.5 µM
HL-60(TB) leukemia
  GI50: 6.88 µM and 6.16 µM
  TGI: 16 µM and 14.7 µM
HOP-62 NSCLC
  GI50: 6.32 µM and 2.3 µM
  TGI: 16.2 µM and 5.95 µM
HOP-92 NSCLC
  GI50: 3.98 µM and 3.4 µM
  TGI: 12.1 µM and 11.5 µM
HS 578T breast
  GI50: 0.773 µM and 2.09 µM
  TGI: 9.1 µM and 9.04 µM
HT29 colon
  GI50: 4.42 µM and 2.64 µM
  TGI: 11.6 µM and 7.03 µM
IGROV1 ovarian
  GI50: 3.82 µM and 1.27 µM
  TGI: 14.1 µM and 7.18 µM
K-562 leukemia
  GI50: 2.18 µM and 0.972 µM
  TGI: 19 µM and > 25 µM
KM12 colon
  GI50: 0.133 µM and 0.115 µM
  TGI: 4.81 µM and 3.08 µM
LOX IMVI melanoma
  GI50: 4.83 µM and 2.69 µM
  TGI: 14.9 µM and 10.2 µM
M14 melanoma
  GI50: 5.86 µM and 2.54 µM
  TGI: 21.4 µM and 7.11 µM
MALME-3M melanoma
  GI50: 7.15 µM and 4.35 µM
  TGI: 17.6 µM and 12 µM
MCF7 breast
  GI50: 2.37 µM and 1.16 µM
  TGI: 17.7 µM and 12.6 µM
MDA-MB-231 breast
  GI50: 7.93 µM and 3.8 µM
  TGI: 23.1 µM and 12.4 µM
MDA-MB-435
  GI50: 4.35 µM and 2.37 µM
  TGI: 11.3 µM and 5.59 µM
MOLT-4 leukemia
  GI50: 7.47 µM and 3.7 µM
  TGI: 23.6 µM and 14.4 µM
NCI-H226 lung
  GI50: 0.717 µM and 0.929 µM
  TGI: 18.7 µM and 7.01 µM
NCI-H23 lung
  GI50: 4.62 µM and 2.09 µM
  TGI: 12.9 µM and 6.86 µM
NCI-H460 lung
  GI50: 4.86 µM and 2.96 µM
  TGI: 11.2 µM and 6.94 µM
NCI-H522 lung
  GI50: 5.48 µM and 1.91 µM
  TGI: 11.2 µM and 5.81 µM
NCI/ADR-RES ovarian
  GI50: 5.44 µM and 3.09 µM
  TGI: 20.2 µM and 13.3 µM
OVCAR-3 ovarian
  GI50: 5.44 µM and 3.61 µM
  TGI: 12.1 µM and 9.52 µM
OVCAR-4 ovarian
  GI50: 4.2 µM and 2.36 µM
  TGI: 17.1 µM and 14.6 µM
OVCAR-5 ovarian
  GI50: 6.44 µM and 5.95 µM
  TGI: 16.2 µM and 13.7 µM
OVCAR-8 ovarian
  GI50: 4.76 µM and 1.95 µM
  TGI: 16.6 µM and 5.76 µM
PC-3 prostate
  GI50: 5.92 µM and 5.35 µM
  TGI: 15.8 µM and 16.1 µM
RPMI-8226 leukemia
  GI50: 6.29 µM and 5.04 µM
  TGI: 17.7 µM and 16.2 µM
RXF 393 renal
  GI50: 2.95 µM and 1.11 µM
  TGI: 7.06 µM and 3.92 µM
SF-268 CNS
  GI50: 4.68 µM and 2.34 µM
  TGI: 12.5 µM and 8.02 µM
SF-295 CNS
  GI50: 4.97 µM and 3.23 µM
  TGI: 16.3 µM and 9.43 µM
SF-539 CNS
  GI50: 2.78 µM and 1.09 µM
  TGI: 8.79 µM and 6.45 µM
SK-MEL-2 melanoma
  GI50: 6.25 µM and 3.36 µM
  TGI: 12.3 µM and 8.36 µM
SK-MEL-28 melanoma
  GI50: 5.73 µM and 4.57 µM
  TGI: 14.3 µM and 11.5 µM
SK-MEL-5 melanoma
  GI50: 3.56 µM and 3.57 µM
  TGI: 7.02 µM and 6.93 µM
SK-OV-3 ovarian
  GI50: 8.24 µM and 4.19 µM
  TGI: 25 µM and 12.6 µM
SN12C renal
  GI50: 4 µM and 1.47 µM
  TGI: 21.2 µM and 11.6 µM
SNB-19 CNS
  GI50: 8.29 µM and 5.71 µM
  TGI: 23.3 µM and 19.5 µM
SNB-75 CNS
  GI50: 3.87 µM and 3.93 µM
  TGI: 9.56 µM and 10.3 µM
SR leukemia
  GI50: 2.15 µM and 1.05 µM
  TGI: 11.7 µM and > 25 µM
SW-620 colon
  GI50: 7.71 µM and 4.14 µM
  TGI: 23.7 µM and 12.1 µM
T-47D breast
  GI50: 6.42 µM and 3.5 µM
  TGI: 16.9 µM and 10.9 µM
TK-10 renal
  GI50: 4.78 µM and 1.6 µM
  TGI: 14.3 µM and 8.76 µM
U251 CNS
  GI50: 7.26 µM and 4.26 µM
  TGI: 22.8 µM and 11.2 µM
UACC-257 melanoma
  GI50: 6.19 µM and 4.11 µM
  TGI: 15.6 µM and 8.64 µM
UACC-62 melanoma
  GI50: 4.29 µM and 2.33 µM
  TGI: 9.76 µM and 5.8 µM
UO-31 renal
  GI50: 4.72 µM and 1.48 µM
  TGI: 14.1 µM and 7.88 µM

## Brc1ccc2[nH]cc([C@@H]3CN[C@@H](c4c[nH]c5ccc(Br)cc45)CN3)c2c1
786-0 renal
  TGI: 14.3 µM
A498 renal
  TGI: 28.7 µM
A549 NSCLC
  TGI: 19.4 µM
ACHN renal
  TGI: 9.59 µM
BT-549 breast
  TGI: 30.8 µM
CAKI-1 renal
  TGI: 21.9 µM
CCRF-CEM leukemia
  TGI: 5.41 µM
COLO 205 colon
  TGI: 3.69 µM
DU-145 prostate
  TGI: 12.6 µM
EKVX NSCLC
  TGI: 20.3 µM
HCC-2998 colon
  TGI: 11.6 µM
HCT-116 colon
  TGI: 9.2 µM
HCT-15 colon
  TGI: 24.8 µM
HL-60(TB) leukemia
  TGI: 4.24 µM
HOP-62 NSCLC
  TGI: 23.1 µM
HOP-92 NSCLC
  TGI: 7.57 µM
HS 578T breast
  TGI: 29.6 µM
HT29 colon
  TGI: 15.5 µM
IGROV1 ovarian
  TGI: 16.6 µM
K-562 leukemia
  TGI: 3.74 µM
KM12 colon
  TGI: 7.06 µM
LOX IMVI melanoma
  TGI: 3.38 µM
M14 melanoma
  TGI: 15 µM
MALME-3M melanoma
  TGI: 29.6 µM
MCF7 breast
  TGI: 11.6 µM
MDA-MB-231 breast
  TGI: 14.2 µM
MDA-MB-435
  TGI: 11.9 µM
MOLT-4 leukemia
  TGI: 4.51 µM
NCI-H226 lung
  TGI: 31.3 µM
NCI-H23 lung
  TGI: 25.3 µM
NCI-H460 lung
  TGI: 24.4 µM
NCI-H522 lung
  TGI: 4.39 µM
NCI/ADR-RES ovarian
  TGI: 25.2 µM
OVCAR-3 ovarian
  TGI: 18.4 µM
OVCAR-4 ovarian
  TGI: 17.7 µM
OVCAR-5 ovarian
  TGI: 20.6 µM
OVCAR-8 ovarian
  TGI: 13.8 µM
PC-3 prostate
  TGI: 14.7 µM
RPMI-8226 leukemia
  TGI: 5.46 µM
RXF 393 renal
  TGI: 24.5 µM
SF-268 CNS
  TGI: 27.8 µM
SF-295 CNS
  TGI: 14.7 µM
SF-539 CNS
  TGI: 24.9 µM
SK-MEL-2 melanoma
  TGI: 27.8 µM
SK-MEL-28 melanoma
  TGI: 27.8 µM
SK-MEL-5 melanoma
  TGI: 20.8 µM
SK-OV-3 ovarian
  TGI: 25.7 µM
SN12C renal
  TGI: 17.8 µM
SNB-19 CNS
  TGI: 24.3 µM
SNB-75 CNS
  TGI: 12.5 µM
SR leukemia
  TGI: 4.17 µM
SW-620 colon
  TGI: 15.6 µM
T-47D breast
  TGI: 29.2 µM
TK-10 renal
  TGI: 16.4 µM
U251 CNS
  TGI: 11.2 µM
UACC-257 melanoma
  TGI: 23.7 µM
UACC-62 melanoma
  TGI: 21.8 µM
UO-31 renal
  TGI: 9.47 µM
